The text below walks through data of US11858934B1, “Substituted pyrido[4′,3′:5,6]pyrimido[1,2-a]indoles as CK2 inhibitors” (KING FAISAL UNIVERSITY, priority 2023, dated 2024).

For one experiment, the system named is H1299 (lung). Nature of the experiment: MTT in vitro cytotoxic activity assay, H1299. The format is cell-based. The following applies: Homo sapiens, NCI-H1299; H1299 (lung) cells, exposed for 96 hours; read-out: IC50, 50% inhibition of cell proliferation. As to the method: (§1) Compounds 1-12 were screened for their in vitro cytotoxic activity utilizing a 3-(4,5-dimethyl-thiazol-2-yl)-2,5-diphenyltetrazolium bromide (MTT) assay against selected cancer human cell lines consisting of PC3 (prostate), HCT116 (colon), A375 (melanoma), H1299 (lung), MIAPaCa-2 (pancreas), HL60 (leukemia), MCF7 (breast), MDA-MB-231 (breast) (T. Mosmann, J. Immunol. Meth., 1983, 65, 55-63). The cells were cultured at 37° C. in RMPI1640 medium supplemented with 10% fetal bovine serum, 50 IU/mL penicillin, and 50 μg/mL streptomycin in a 5% CO2 incubator. All cells were sub-cultured 3 times/week by trypsinisation. Viable cells were seeded and allowed to adhere for 12 h before a test drug was added in 96-well plates at an initial density of 1.0×10^5 cells/mL. Tumour cell lines were separately exposed to various concentrations of the tested compounds followed by incubation at a temperature of 37° C. during 96 h inside a medium of fresh RMPI 1640. Cells were subsequently incubated at 37° C. using MTT at 0.5 mg/mL during 4 h. After removal of supernatant, formazan crystals were dissolved in isopropanol and the optical density was measured at 570 nm. CX-4945 was used as a positive control.

The next experiment concerns MDA-MB-231 (breast). In words: MTT in vitro cytotoxic activity assay, MDA-MB-231. As to conditions: Homo sapiens; MDA-MB-231 (breast) cells, exposed for 96 hours; read-out: IC50, 50% inhibition of cell proliferation. The format is cell-based. As to the method: as §1
The subject of a further experiment is A375 (melanoma). In words: MTT in vitro cytotoxic activity assay, A375. The format is cell-based. As to conditions: Homo sapiens, A-375; A375 (melanoma) cells, exposed for 96 hours; read-out: IC50, 50% inhibition of cell proliferation. As to the method:
as §1

The next experiment deals with HL60 (leukemia). Nature of the experiment: MTT in vitro cytotoxic activity assay, HL60. The format is cell-based. As to conditions: Homo sapiens, HL-60; HL60 (leukemia) cells, exposed for 96 hours; read-out: IC50, 50% inhibition of cell proliferation. As to the method:
as §1

In another experiment the target is T1, recombinant human CK2 (Homo sapiens, UniProt P68400).
T1 construct: purchased Millipore
In words: CK2 kinase assay (33P-ATP, substrate peptide RRRDDDSDDD). The format is biochemical. As to conditions: final ATP concentration 15 μM, 10 min at 30° C; read-out: IC50, protein kinase CK2 activity. As to the method: CK2 Kinase Assay was conducted using the protocol as described in Pierre F. et al; J. Med. Chem. 2011, 54, 635-654. The tested compounds in aqueous solution were added at a volume of 10 μL to a reaction mixture comprising 10 μL of assay dilution buffer (ADB; 20 mM MOPS, pH 7.2, 25 mM (β-glycerol phosphate, 5 mM EGTA, 1 mM sodium orthovanadate, and 1 mM dithiothreitol), 10 μL of substrate peptide (RRRDDDSDDD, dissolved in ADB at a concentration of 1 mM), 10 μL of recombinant human CK2 (RRfββ-holoenzyme, 25 ng dissolved in ADB; Millipore). Reactions were initiated by the addition of 10 μL of ATP solution (90% 75 mMMgCl2, 75 μM ATP (final ATP concentration: 15 μM) dissolved in ADB; 10% [γ-33P] ATP (stock 1 mCi/100 μL; 3000 Ci/mmol (Perkin-Elmer) and maintained for 10 min at 30° C. The reactions were quenched with 100 μL of 0.75% phosphoric acid and then transferred to and filtered through a phosphor cellulose filter plate (Millipore). After washing each well five times with 0.75% phosphoric acid, the plate was dried under vacuum for 5 min and, following the addition of 15 μL of scintillation fluid to each well, the residual radioactivity was measured using a Wallac luminescence counter. The IC50 values were derived from eight concentrations of test inhibitors.

For another experiment, the system named is HCT116 (colon). Nature of the experiment: MTT in vitro cytotoxic activity assay, HCT116. The format is cell-based. The following applies: Homo sapiens, HCT-116; HCT116 (colon) cells, exposed for 96 hours; read-out: IC50, 50% inhibition of cell proliferation. As to the method:
as §1

In a further experiment the test system is MIAPaCa-2 (pancreas). Nature of the experiment: MTT in vitro cytotoxic activity assay, MIAPaCa-2. The format is cell-based. As to conditions: Homo sapiens, MIA PaCa-2; MIAPaCa-2 (pancreas) cells, exposed for 96 hours; read-out: IC50, 50% inhibition of cell proliferation. As to the method: as §1
The test system of a further experiment is PC3 (prostate). Nature of the experiment: MTT in vitro cytotoxic activity assay, PC3. The format is cell-based. The following applies: Homo sapiens, Prostate cell; PC3 (prostate) cells, exposed for 96 hours; read-out: IC50, 50% inhibition of cell proliferation. As to the method: as §1
In the next experiment the test system is MCF7 (breast). Nature of the experiment: MTT in vitro cytotoxic activity assay, MCF7. As to conditions: Homo sapiens; MCF7 (breast) cells, exposed for 96 hours; read-out: IC50, 50% inhibition of cell proliferation. The format is cell-based. As to the method:
as §1

T1 sequence (P68400 whole entry): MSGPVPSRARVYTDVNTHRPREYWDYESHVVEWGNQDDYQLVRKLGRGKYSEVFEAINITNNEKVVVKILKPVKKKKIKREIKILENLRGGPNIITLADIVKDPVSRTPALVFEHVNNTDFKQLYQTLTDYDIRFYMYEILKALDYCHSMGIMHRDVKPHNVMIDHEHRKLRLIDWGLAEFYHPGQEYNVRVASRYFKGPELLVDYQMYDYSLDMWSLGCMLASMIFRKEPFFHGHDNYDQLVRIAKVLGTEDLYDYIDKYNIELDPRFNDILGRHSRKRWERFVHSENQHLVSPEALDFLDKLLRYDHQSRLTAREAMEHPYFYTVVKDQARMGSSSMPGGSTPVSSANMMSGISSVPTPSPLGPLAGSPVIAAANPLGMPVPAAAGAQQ
T1 sequence (P67870 whole entry partner): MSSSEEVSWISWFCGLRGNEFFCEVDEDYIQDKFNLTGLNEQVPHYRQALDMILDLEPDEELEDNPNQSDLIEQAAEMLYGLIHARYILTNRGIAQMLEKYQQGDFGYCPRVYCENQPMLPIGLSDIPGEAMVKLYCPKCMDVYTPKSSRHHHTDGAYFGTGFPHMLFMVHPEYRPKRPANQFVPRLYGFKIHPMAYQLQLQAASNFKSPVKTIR

For the molecule `O=C(O)c1ccc2c(c1)cc1nc(Nc3cccc(Cl)c3)c3ccncc3n12` [Compound 1, 5-((3-chlorophenyl)amino)pyrido[4′,3′:5,6]pyrimido[1,2-a]indole-9-carboxylic acid], the IC50 came out at 1900 nM in the experiment with H1299 (lung); 5500 nM with MDA-MB-231 (breast); 3500 nM in the experiment on A375 (melanoma); 3300 nM in the experiment with HL60 (leukemia); 15 nM at recombinant human CK2; 1800 nM in the experiment with HCT116 (colon). The IC50 is 1400 nM in the experiment on MIAPaCa-2 (pancreas), 2200 nM with PC3 (prostate) and 6900 nM in the experiment on MCF7 (breast).
